Assay results taken from patent US8247211B2, “Glycopeptide antibiotics” (American Cyanamid Company, priority 2001, dated 2012).
In brackets after ≈: the same amount, converted by molar mass.

Legend:
Assay in all cases: In vitro antibacterial evaluation: minimum inhibitory concentration (MIC), broth dilution method
Assay type in all cases: cell-based
Enterococcus sp. = details: broth dilution, 5×10^5 CFU/mL, 18 hours at 35° C.
In short: (§1)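 Susceptibility determined by NCCLS-recommended broth dilution (M7-A2), Muller-Hinton II […]. Concentration span 64-0.06 μg/mL, inoculum 5×10^5 CFU/mL. Isolates include strains resistant to methicillin, penicillin and/or vancomycin.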

Escherichia coli = details: 5×10^5 CFU/mL, 18 hours at 35° C.
In short: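 Using Muller-Hinton II […] and an inoculum of 5×10^5 CFU/mL, antibiotic dilutions from 64 down to 0.06 μg/mL were tested following NCCLS M7-A2. The MIC is the lowest concentration inhibiting growth, including in methicillin-, penicillin- or vancomycin-resistant clinical isolates.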

Staphylococcus sp. = details: for MIC Staphylococcus aureus (ATCC 29213): strain ATCC 29213; for MIC Staphylococcus aureus (GC 1131): strain GC 1131; for MIC Staphylococcus aureus (GC 4541): strain GC 4541; for MIC Staphylococcus aureus (GC 4542): strain GC 4542; for MIC Staphylococcus aureus-SMITH (GC 4543): strain GC 4543; for MIC Staphylococcus aureus (GC 4544): strain GC 4544; for MIC Staphylococcus aureus (GC 4545): strain GC 4545; for MIC Staphylococcus haemolyticus (GC 4546): strain GC 4546; for MIC Coagulase Negative Staphylococcus (GC 4547): strain GC 4547; for MIC Coagulase Negative Staphylococcus (GC 4548): strain GC 4548; for MIC Coagulase Negative Staphylococcus (GC 4549): strain GC 4549; for MIC Coagulase Negative Staphylococcus (GC 4551): strain GC 4551; for MIC Coagulase Negative Staphylococcus (ID-3941): strain ID-3941
In short: as §1

Streptococcus sp. = details: broth dilution, 5×10^5 CFU/mL, 18 hours at 35° C.
In short: as §1

[1] = broth dilution, 18 hours at 35° C.

Structure (SMILES)	MIC Enterococccus avium (GC 4558) (Enterococcus sp.) [µg/mL]	MIC Enterococccus faecalis (ATCC 29212) (Enterococcus sp.) [µg/mL]	MIC Enterococccus faecalis (GC 4552) (Enterococcus sp.) [µg/mL]	MIC Enterococccus faecalis (GC 4553) (Enterococcus sp.) [µg/mL]	MIC Enterococccus faecalis (GC 4554) (Enterococcus sp.) [µg/mL]	MIC Enterococccus faecium (GC 2243) (Enterococcus sp.) [µg/mL]	MIC Enterococccus faecium (GC 4556) (Enterococcus sp.) [µg/mL]	MIC Enterococccus faecium (GC 4557) (Enterococcus sp.) [µg/mL]	MIC Enterococcus faecalis (GC 2242) (Enterococcus sp.) [µg/mL]	MIC Escherichia coli (ATCC 25922) (Escherichia coli) [µg/mL]	MIC Staphylococcus aureus (ATCC 29213) (Staphylococcus sp.) [µg/mL]	MIC Staphylococcus aureus (GC 1131) (Staphylococcus sp.) [µg/mL]	MIC Staphylococcus aureus (GC 4541) (Staphylococcus sp.) [µg/mL]	MIC Staphylococcus aureus (GC 4542) (Staphylococcus sp.) [µg/mL]	MIC Staphylococcus aureus-SMITH (GC 4543) (Staphylococcus sp.; 18 hours at 35° C.) [µg/mL]	MIC Staphylococcus aureus-SMITH (GC 4543) (Staphylococcus sp.; [1]) [µg/mL]	MIC Staphylococcus aureus (GC 4544) (Staphylococcus sp.) [µg/mL]	MIC Staphylococcus aureus (GC 4545) (Staphylococcus sp.) [µg/mL]	MIC Staphylococcus haemolyticus (GC 4546) (Staphylococcus sp.) [µg/mL]	MIC Staphylococcus haemolyticus (GC 4546) (Staphylococcus sp.; [1]) [µg/mL]	also measured
CC(c1ccccc1)C1NC(=O)CNC(=O)C(CO)NC(=O)C(C(O)C2CNC(=N)N2C2OC(CO)C(O)C(O)C2O)NC(=O)C(C(O)C2CNC(=N)N2)NC(=O)C(Cc2ccc(OC3OC(COC(=O)OCc4ccccc4)C(OC4OC(CO)C(O)C(O)C4O)C(O)C3O)cc2)NC1=O (stereo not drawn) [Example 101, Cyclo[glycyl-β-methylphenylalanyl-O-[4-O-hexopyranosyl-6-O-[(phenylmethoxy)carbonyl]-hexopyranosyl]tyrosyl-3-(2-iminoimidazolidin-4-yl)seryl-3-(3-hexopyranosyl-2-iminoimidazolidin-4-1/1)serylseryl]]	32 (≈ 22.4 µM)	32 (≈ 22.4 µM)	64 (≈ 44.8 µM)	32 (≈ 22.4 µM)	64 (≈ 44.8 µM)	32 (≈ 22.4 µM)	32 (≈ 22.4 µM)	2 (≈ 1.4 µM)	16 (≈ 11.2 µM)	>64	4 (≈ 2.8 µM)	4 (≈ 2.8 µM)	4 (≈ 2.8 µM)	8 (≈ 5.6 µM)	4 (≈ 2.8 µM)	4 (≈ 2.8 µM)	8 (≈ 5.6 µM)	4 (≈ 2.8 µM)	4 (≈ 2.8 µM)	4 (≈ 2.8 µM)	MIC Coagulase Negative Staphylococcus (GC 4547) (Staphylococcus sp.): 2 µg/mL (≈ 1.4 µM); MIC Coagulase Negative Staphylococcus (GC 4547) (Staphylococcus sp.; [1]): 2 µg/mL (≈ 1.4 µM); MIC Coagulase Negative Staphylococcus (GC 4548) (Staphylococcus sp.): 2 µg/mL (≈ 1.4 µM); MIC Coagulase Negative Staphylococcus (GC 4548) (Staphylococcus sp.; [1]): 2 µg/mL (≈ 1.4 µM); MIC Coagulase Negative Staphylococcus (GC 4549) (Staphylococcus sp.): 1 µg/mL (≈ 0.7 µM); MIC Coagulase Negative Staphylococcus (GC 4549) (Staphylococcus sp.; [1]): 1 µg/mL (≈ 0.7 µM); MIC Coagulase Negative Staphylococcus (GC 4551) (Staphylococcus sp.): 8 µg/mL (≈ 5.6 µM); MIC Coagulase Negative Staphylococcus (GC 4551) (Staphylococcus sp.; [1]): 8 µg/mL (≈ 5.6 µM); MIC Coagulase Negative Staphylococcus (ID-3941) (Staphylococcus sp.): 1 µg/mL (≈ 0.7 µM); MIC Coagulase Negative Staphylococcus (ID-3941) (Staphylococcus sp.; [1]): 1 µg/mL (≈ 0.7 µM); MIC Streptococcus agalactiae (GC 4564) (Streptococcus sp.): 2 µg/mL (≈ 1.4 µM); MIC Streptococcus pneumoniae (GC 4565) (Streptococcus sp.): <0.5 µg/mL; MIC Streptococcus pyogenes (ID-3187) (Streptococcus sp.): 2 µg/mL (≈ 1.4 µM)
N=C1NCC(C(O)C2NC(=O)C(Cc3ccc(OC4OC(CO)C(OC5OC(CO)C(O)C6OC7(OC56)C5CC6CC(C5)CC7C6)C(O)C4O)cc3)NC(=O)C(CC3CCCCC3)NC(=O)CNC(=O)C(CO)NC(=O)C(C(O)C3CNC(=N)N3C3OC(CO)C(O)C(O)C3O)NC2=O)N1 (stereo not shown) [Example 106a, Cyclo[3-cyclohexylalanyl-O-[4-O-[2,3-O-(2-adamantylidene)hexopyranosyl]hexopyranosyl]-tyrosyl-3-(2-iminoimidazolidin-4-yl)seryl-3-(3-hexopyranosyl-2-iminoimidazolidin-4-yl)-serylserylglycyl]]	4 (≈ 2.82 µM)	8 (≈ 5.64 µM)	4 (≈ 2.82 µM)	4 (≈ 2.82 µM)	8 (≈ 5.64 µM)	4 (≈ 2.82 µM)	8 (≈ 5.64 µM)	2 (≈ 1.41 µM)	4 (≈ 2.82 µM)	32 (≈ 22.5 µM)	2 (≈ 1.41 µM)	2 (≈ 1.41 µM)	2 (≈ 1.41 µM)	2 (≈ 1.41 µM)	2 (≈ 1.41 µM)	2 (≈ 1.41 µM)	4 (≈ 2.82 µM)	2 (≈ 1.41 µM)	2 (≈ 1.41 µM)	2 (≈ 1.41 µM)	MIC Enterococccus faecalis (GC 2691) (Enterococcus sp.): 4 µg/mL (≈ 2.82 µM); MIC Enterococccus faecalis (GC 3059) (Enterococcus sp.): 8 µg/mL (≈ 5.64 µM); MIC Enterococccus faecalis (GC 6189) (Enterococcus sp.): 4 µg/mL (≈ 2.82 µM); MIC Escherichia coli (GC 4559) (Escherichia coli): 32 µg/mL (≈ 22.5 µM); MIC Escherichia coli (GC 4560) (Escherichia coli): 2 µg/mL (≈ 1.41 µM); MIC Staphylococcus aureus (GC 3051) (Staphylococcus sp.; strain GC 3051): 2 µg/mL (≈ 1.41 µM); MIC Staphylococcus aureus (GC 3053) (Staphylococcus sp.; strain GC 3053): 2 µg/mL (≈ 1.41 µM); MIC Coagulase Negative Staphylococcus (GC 4547) (Staphylococcus sp.): 2 µg/mL (≈ 1.41 µM); MIC Coagulase Negative Staphylococcus (GC 4547) (Staphylococcus sp.; [1]): 2 µg/mL (≈ 1.41 µM); MIC Coagulase Negative Staphylococcus (GC 4548) (Staphylococcus sp.): 1 µg/mL (≈ 0.704 µM); MIC Coagulase Negative Staphylococcus (GC 4548) (Staphylococcus sp.; [1]): 1 µg/mL (≈ 0.704 µM); MIC Coagulase Negative Staphylococcus (GC 4549) (Staphylococcus sp.): 1 µg/mL (≈ 0.704 µM); MIC Coagulase Negative Staphylococcus (GC 4549) (Staphylococcus sp.; [1]): 1 µg/mL (≈ 0.704 µM); MIC Coagulase Negative Staphylococcus (GC 4551) (Staphylococcus sp.): 2 µg/mL (≈ 1.41 µM); MIC Coagulase Negative Staphylococcus (GC 4551) (Staphylococcus sp.; [1]): 2 µg/mL (≈ 1.41 µM); MIC Streptococcus agalactiae (GC 4564) (Streptococcus sp.): 0.25 µg/mL (≈ 0.176 µM); MIC Streptococcus pneumoniae (GC 1894) (Streptococcus sp.): <0.06 µg/mL; MIC Streptococcus pneumoniae (GC 4565) (Streptococcus sp.): <0.06 µg/mL; MIC Streptococcus pneumonine (ATCC 6301) (Streptococcus sp.): 0.12 µg/mL (≈ 0.0845 µM); MIC Streptococcus pyogenes (GC 4563) (Streptococcus sp.): 0.25 µg/mL (≈ 0.176 µM)
